In US11999782B2, “Therapeutic agents for the treatment of diseases associated with undesired cell proliferation” (Fundació Privada Institutció Catalana de Recerca I Estudis …, priority 2009, dated 2024):

B1: TGFβ2: TGFβ2 (R&D Systems), member of the TGFβ family (protein, UniProt P61812 303-414, looked up)
Transforming growth factor …: ALDAAYCFRNVQDNCCLRPLYIDFKRDLGWKWIHEPKGYNANFCAGACPYLWSSDTQHSRVLSLYNTINPEASASPCCVSQDLEPLTILYYIGKTPKIEQLSNMIVKSCKCS

How the values were obtained:
[1] = system: GICs (glioma initiating cells) / GBM neurospheres; assay: Self-renewal assay of GBM neurospheres (GICs derived from patients); format: cell-based, human; conditions: added with 100 pM TGFβ1; 2 μM TβRI inhibitor, anti-LIF neutralizing antibody or 0.5 pM P6; absence of EGF and FGF
Procedure: FIG. 1. Effect of TGFβ on the self-renewal of GIC derived from patients. (A) Representative images of PCTCs and neurospheres of GBM generated from samples of 3 different patients with GBM (GBM1, GBM2, GBM3). (B) Musashi-1 (Msi-1), Sox2, Nestin and β-actin were determined by means of RT-PCR analysis of PCTCs and neurospheres of 3 samples of human GBM. (C) 100,000 neurosphere (nsph.) or PCTC cells obtained from samples of GBM1, GBM2 and GBM3 tumors were intracranially inoculated in three Balbc nu/nu mice in each case. Magnetic resonance imaging (MRI) studies were performed on days 30-40 in each mouse. The images represent an example of mice inoculated with neurosphere or PCTC cells obtained from GBM1. The mice were weighed twice a week. The graph represents mice inoculated with cells derived from GBM1. (D and E) Neurosphere cells of the indicated GBMs were incubated in the absence of growth factors with 100 pM TGFβ1 and/or 2 μM TβRI inhibitor for 7 days and the number of newly formed neurospheres (D) and the total number of cells (E) were determined. (F) Representative images of GBM1 neurospheres treated as indicated in D and E.
FIG. 6. LIF mediates the increase of self-renewal of GIC by TGFβ. (A, B) GBM1, GBM2 and GBM3 neurosphere cells were treated with 100 pM TGFβ1, 20 ng/ml LIF and/or anti-LIF neutralizing antibody and 0.5 pM P6 in the absence of EGF and FGF and the number of newly formed neurospheres (A) or the total number of cells (B) was determined. (C) Representative images of GBM1 neurospheres treated as indicated in A and B.
The self-renewal of the neurospheres was evaluated by seeding an identical number of cells at a very low density in wells of a 96-well plate. The cells were treated, in the absence of growth factors, with the indicated compounds and the total number of new neurospheres formed after 7 days in culture was counted (Lee et al. (2008) Cancer Cell 13, 69-80; Reynolds and Weiss, (1996) Dev Biol 175, 1-13; Seaberg and van der Kooy, (2002) J Neurosci 22, 1784-1793).
It was decided to evaluate the effect of TGFβ on the capacity for self-renewal of GICs following a well described protocol based on the capacity of GICs to generate neurospheres (Reynolds and Weiss, 1996, Dev Biol. 175:1-13; Seaberg and van der Kooy, 2002, J Neurosci 22:1784-1793). The neurospheres derived from patients were disassociated into individual cells, treated with TGFβ or left untreated for 7 days in the absence of growth factors and the newly formed neurospheres and the total number of cells were counted. Following this protocol, the effect of TGFβ on the capacity for self-renewal of the GICs derived from three different patients was evaluated. […] These effects were blocked when an TGFβ I receptor inhibitor (TβRI) was added at the same time as TGFβ.
It was decided to assess whether LIF and JAK-STAT pathway mediated the increase of self-renewal of GICs by TGFβ. For this purpose, the neutralizing antibody against LIP and P6 was used to specifically block the effect of the secreted LIP on cells treated with TGFβ. The neurospheres were disassociated into individual cells and were treated with TGFβ, recombinant LIF, anti-LIF antibody and/or P6. The newly formed neurospheres and the total number of cells were counted. […] The treatment with the neutralizing antibody of LIP decreased the induction of the self-renewal of GICs by TGFβ.

[2] = system: STAT3 phosphorylation (JAK-STAT pathway); assay: p-STAT3 Western blotting in GBM1 neurospheres; format: cell-based, human
Procedure: FIG. 5. TGFβ induces the LIF-JAK-STAT pathway in GEM neurospheres derived from patients. (A) The levels of p-STAT3 and STAT3 were determined by means of Western blotting of neurospheres of the sample of GBM1 treated with 20 ng/ml LIF for the indicated time periods. (B) The neurospheres of the sample of GBM1 were treated with 20 ng/ml LIF and/or 0.5 pM P6 for 15 minutes and the levels of total p-STAT3 and STAT3 were determined by means of Western blotting. (C) The neurospheres of the sample of GBM1 were treated with 100 pM TGFβ1 or the 2 pM TβRI inhibitor for 4 hours in the absence of EFG and FGF and the levels of p-STAT3, STAT3, p-Smad2, Smad2 and α-tubulin were determined by means of Western blotting. (D) the neurospheres of the sample of GBM1 were treated with 100 pM TGFβ1, 0.5 μM P6 or the blocking antibody against LIF for 4 hours in the absence of EGF and FGF and the levels of total p-STAT3 and STAT3 were determined by means of Western blotting.
Genomic DNA of U373MG was used to amplify the −634/+32 region of the human LIF promoter which was cloned into the pGL2-basic luciferase vector. The deletion constructs (−267/+32), and (−73/+32) were generated by means of digestion of the construct (−634/+32). Two point mutations were introduced in positions −183 bp and −184 bp in the construct (−267/+32) to interrupt the Smad binding element (SBE) and generate the construct (−267/+32) mutSBE. TGFβ1, TGFβ2, TGFβ3 (R&D Systems), TβRI inhibitor (SB431542, Tocris), LIF (Chemicon), the neutralizing antibodies against LIF (R&D), JAK inhibitor (tetracyclic pyridone 6 (P6) Calbiochem), the assembly of SMART siRNAs targeted to Smad2, Smad3 and Smad4 (Dharmacon), and the control siRNA siGlo (Dharmacon) were used at the indicated concentrations. The antibodies specific against p-Smad2, Smad2, p-STAT3 (p-Tyr705) and total STAT3 (Cell Signalling) and against Smad2, Smad3 and Smad4 (Hata et al., (2000) Cell 100, 229-240) were used for Western blotting.
In order to distinguish whether the LIF signaling pathway is functional in GEM neurospheres, the neurospheres were treated with recombinant LIF and the levels of phosphorylation of the downstream substrate of the LIF receptor complex, STAT3, were determined. […] Furthermore, the induction of p-STAT3 was prevented by the presence of a pharmacological JAK-specific, tetracyclic pyridone 6 (P6) (Pedranzini et al., 2006, Cancer Res, 66: 9714-9721; Thompson et al., 2002, Bioorg Med Chem Lett, 12:1219-1223) (FIG. 5B). […] It was decided to assess whether LIP was mediating the induction of p-STAT3 by TGFβ. For this purpose, a neutralizing antibody against LIF was used to specifically block the effect of secreted LIP on cells treated with TGFβ. The presence of the neutralizing antibody of LIP decreased the induction of p-STAT3 by TGFβ. Furthermore, the levels of p-STAT3 in cells treated with TGFβ were repressed by means of the treatment with P6 (FIG. 5D).

[3] = system: LIF expression in GBM neurospheres; assay: LIF mRNA by qRT-PCR in GBM neurospheres; format: cell-based, human; conditions: 100 pM, 3 hours, medium without serum
Procedure: FIG. 3. TGFβ induces the expression of LIF in PCTC and GBM neurospheres. (A) PCTC cells of the 11 samples of the indicated GEM (GBM1-11) were treated with 100 pM TGFβ1 for 3 hours in medium without serum or left untreated, and the expression levels of LIF were determined by means of qRT-PCR. The g-actin was determined as an internal normalization control. (B) GBM neurosphere cells were treated as in A and the expression levels of LIF were determined by means of qRT-PCR as in A. (C) GBM neurospheres were incubated with 100 pM TGFβ1 and/or 2 μM TβRI inhibitor for 3 hours in medium without serum and the mRNA levels of LIF were determined by means of qRT-PCR as in A. (D) GBM1 neurospheres were incubated with 100 pM TGFβ1, TGFβ2 and TGFβ3 for 3 hours in medium without serum and the mRNA levels of LIF were determined by means of qRT-PCR as in A. (E) The levels of LIF protein secreted were determined by means of ELISA in GBM1 neurospheres after 48 hours of treatment with 100 pM TGFβ1.
The U373MG and A172 cells were a generous gift from J. Rich and D. Bigner and were cultured in DMEM with 10% fetal bovine serum (FBS). The primary culture of tumor cells (PCTC) and the GBM neurospheres were generated as described (Bruna et al., (2007) Cancer Cell 11, 147-160; Gunther et al., (2008) Oncogene. May 1; 27(20):2897-909). Briefly, the samples of tumors were processed in the 30 minutes after the surgical resection. The ground pieces of the samples of human gliomas were digested with 200 U/ml collagenase I (Sigma) and 500 U/ml of DNase I (Sigma) in PBS for 2 hours at 37° C. and with constant vigorous stirring. The suspension of individual cells was filtered through a 70 μm cell filter (BD Falcon) and washed with PBS. Finally, the cells were resuspended and subsequently cultured in DMEM with 10% FBS, for the culture of PCTCs, or in neurosphere medium in the case of the GBM neurospheres. The neurospheres of normal human neuroprogenitors were generated from human embryonic cerebral cortex tissue (12-16 weeks after the conception) collected after voluntary abortions. The samples were processed and cultured as described (Poltavtseva et al. (2002) Brain Res Dev Brain Res 134, 149-154). The neurosphere medium consists of neurobasal medium (Gibco) supplemented with B27 (Gibco), L-glutamine (Gibco), penicillin/streptomycin, and growth factors (20 ng/mL EGF and 20 ng/mL FGF-2 (Peprotech)).
qRT-PCR was performed using Taqman probes from Applied Biosystems, according to the manufacturer's recommendations. The reactions were carried out in a ABI 7000 sequence detector (Perkin Elmer) and the results were expressed as the fold change calculated by means of the DDCt method relative to the control sample or the first quantified sample. The ribosomal unit of 18S or β-actin were used as internal normalization controls.
It was decided to investigate the molecular mechanisms responsible for the effect of TGFβ on GICs. Gene responses to TGFβ in GBM cells which could be involved in the regulation of the self-renewal of GICs were investigated. In a previous work (Bruna et al., 2007), transcriptome analyses were conducted in the U373MG glioma cell line treated with TGFβ and/or a TβRI inhibitor. LIF was among the 63 gene responses to TGFβ in U373MG which were dependent on the activity of TβRI. […] A panel of PCTCs derived from 11 different human GBMs was treated with TGFβ for 3 hours and the levels of LIF mRNA were determined.

[4] = system: LIF expression in normal human neuroprogenitors; assay: LIF mRNA in neurospheres of normal human neuroprogenitors; format: cell-based; conditions: 100 pM, 3 hours, compared with GBM neurospheres
Procedure: FIG. 8. Effect of TGFβ on the capacity of self-renewal of normal human neuroprogenitors. (A) Immunocytochemistry of the indicated markers was performed in human neuroprogenitor neurospheres. (B) Neurospheres of the sample of GBM1 and of human neuroprogenitors were incubated with the indicated members of the 100 pM TGFβ family for 3 hours and the mRNA levels of LIF were determined. (C, D) Neurosphere cells of normal human neuroprogenitors were incubated in the same conditions that have been described above in FIG. 1D in the presence of 100 pM TGFβ1 or 20 ng/ml LIF for 7 days and the number of newly formed neurospheres (C) and the number total of cells (D) were determined.
The U373MG and A172 cells were a generous gift from J. Rich and D. Bigner and were cultured in DMEM with 10% fetal bovine serum (FBS). The primary culture of tumor cells (PCTC) and the GBM neurospheres were generated as described (Bruna et al., (2007) Cancer Cell 11, 147-160; Gunther et al., (2008) Oncogene. May 1; 27(20):2897-909). Briefly, the samples of tumors were processed in the 30 minutes after the surgical resection. The ground pieces of the samples of human gliomas were digested with 200 U/ml collagenase I (Sigma) and 500 U/ml of DNase I (Sigma) in PBS for 2 hours at 37° C. and with constant vigorous stirring. The suspension of individual cells was filtered through a 70 μm cell filter (BD Falcon) and washed with PBS. […]
qRT-PCR was performed using Taqman probes from Applied Biosystems, according to the manufacturer's recommendations. The reactions were carried out in a ABI 7000 sequence detector (Perkin Elmer) and the results were expressed as the fold change calculated by means of the DDCt method relative to the control sample or the first quantified sample. […]
It was decided to assess whether this effect was specific to tumor cells or was also present in normal neuroprogenitor cells. […] First, it was determined if TGFβ induced LIF in normal human neuroprogenitors. […]

Molecule	effect on the induction of self-renewal of GICs by TGFβ (number of neurospheres, total number of cells) [1]	effect on the induction of p-STAT3 by TGFβ ([2]; 100 pM TGFβ1, 4 hours, absence of EGF and FGF, 2 pM TβRI inhibitor, 0.5 μM P6 or blocking antibody against LIF)	effect on the induction of p-STAT3 by LIF ([2]; 20 ng/ml LIF and 0.5 pM P6, 15 minutes)	LIF transcript in neurospheres derived from patients [3]	induction of LIF mRNA in normal human neuroprogenitor neurospheres [4]
CC(C)(C)c1nc2c3ccc(F)cc3c3c(=O)[nH]ccc3c2[nH]1 [P6, tetracyclic pyridone 6]	repressed	repressed	prevented	–	–
B1	–	–	–	capable of inducing LIF	did not induce LIF
